Reference: US8785460B2, “Tricyclic compounds and use thereof” (Takeda Pharmaceutical Company Limited, priority 2008, dated 2014)

What was measured:
[1] = biological target: T1, human CRF1 receptor (Homo sapiens, UniProt P34998); assay: Measurement of CRF Binding Inhibitory Rate (receptor binding experiment with 125I-CRF); conditions: human CRF1 receptor expressing CHO cellular membrane fraction, 50 pM 125I-CRF, room temperature 1.5 hr, 0.05 nM to 10 μM of compound; read-out: IC50 values (CRF binding inhibition)
T1 construct: expressed in transfected cells; host or cells: CHO cells (membrane fraction)
T1 sequence (P34998 24-415): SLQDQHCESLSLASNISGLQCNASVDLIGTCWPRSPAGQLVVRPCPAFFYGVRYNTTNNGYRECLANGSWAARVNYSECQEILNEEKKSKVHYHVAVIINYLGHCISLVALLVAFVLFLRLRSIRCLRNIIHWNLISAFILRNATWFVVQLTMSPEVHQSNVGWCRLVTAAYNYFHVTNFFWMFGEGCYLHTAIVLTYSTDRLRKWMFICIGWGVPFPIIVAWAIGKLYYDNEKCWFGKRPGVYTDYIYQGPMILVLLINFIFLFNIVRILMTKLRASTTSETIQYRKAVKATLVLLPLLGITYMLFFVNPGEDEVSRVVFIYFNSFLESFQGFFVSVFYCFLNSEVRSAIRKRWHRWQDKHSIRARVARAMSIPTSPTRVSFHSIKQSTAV

Compound	melting point [°C]	IC50 [1] [µM]
Cc1nc(C(C)C)nc(C)c1N1CCCn2c1nc1c(Cl)ccc(C(OC(F)F)C(F)(F)F)c12 (stereo not shown) [Example 214, 9-Chloro-6-[1-(difluoromethoxy)-2,2,2-trifluoroethyl]-1-[4,6-dimethyl-2-(1-methylethyl)pyrimidin-5-yl]-1,2,3,4-tetrahydropyrimido[1,2-a]benzimidazole]	204 to 206	< 1
Cc1nc(OC(F)F)nc(C)c1N1CCCn2c1nc1c(Cl)ccc(C(OC(F)F)C(F)(F)F)c12 (stereo not shown) [Example 216, 9-Chloro-1-[2-(difluoromethoxy)-4,6-dimethylpyrimidin-5-yl]-6-[1-(difluoromethoxy)-2,2,2-trifluoroethyl]-1,2,3,4-tetrahydropyrimido[1,2-a]benzimidazole]	165 to 166	< 1
Cc1nc(C2CC2)nc(C)c1N1CCCn2c1nc1c(Cl)ccc(C(OC(F)F)C(F)(F)F)c12 (stereo not shown) [Example 218, 9-Chloro-1-(2-cyclopropyl-4,6-dimethylpyrimidin-5-yl)-6-[1-(difluoromethoxy)-2,2,2-trifluoroethyl]-1,2,3,4-tetrahydropyrimido[1,2-a]benzimidazole]	191 to 193	< 1
CCC(c1ccc(Cl)c2nc3n(c12)CCCN3c1c(C)nc(OC)nc1C)C(F)F (stereo not shown) [Example 222, 9-Chloro-6-[1-(difluoromethyl)propyl]-1-(2-methoxy-4,6-dimethylpyrimidin-5-yl)-1,2,3,4-tetrahydropyrimido[1,2-a]benzimidazole]	181 to 183	< 1
CCC(CC)c1ccc(Cl)c2nc3n(c12)CCCCN3c1cc(C)cc2c1ncn2C [Example 230, 10-Chloro-1-(1,6-dimethyl-1H-benzimidazol-4-yl)-7-(1-ethylpropyl)-2,3,4,5-tetrahydro-1H-[1,3]diazepino[1,2-a]benzimidazole]	259 to 260	< 1
CCN(CC)c1cccc2nc3n(c12)CC(F)(F)CN3c1ccc(Cl)cc1Cl [Example 231, 1-(2,4-Dichlorophenyl)-N,N-diethyl-3,3-difluoro-1,2,3,4-tetrahydropyrimido[1,2-a]benzimidazol-6-amine]	125 to 127	< 1
CCCC(O)(CCC)c1ccc(Cl)c2nc3n(c12)CCCN3c1ccc(Cl)cc1Cl [Example 233, 4-[9-Chloro-1-(2,4-dichlorophenyl)-1,2,3,4-tetrahydropyrimido[1,2-a]benzimidazol-6-yl]heptan-4-ol]	133 to 135	< 1
COC(c1ccc(Cl)c2nc3n(c12)CCCN3c1ccc(Cl)cc1Cl)C(C)C (stereo not shown) [Example 235, 9-Chloro-1-(2,4-dichlorophenyl)-6-(1-methoxy-2-methylpropyl)-1,2,3,4-tetrahydropyrimido[1,2-a]benzimidazole]	162 to 164	< 1
CCC(OCC1CC1)c1ccc(Cl)c2nc3n(c12)CCCN3c1ccc(Cl)cc1Cl (stereo not shown) [Example 236, 9-Chloro-6-[1-(cyclopropylmethoxy)propyl]-1-(2,4-dichlorophenyl)-1,2,3,4-tetrahydropyrimido[1,2-a]benzimidazole]	159 to 160	< 1
CCC(=O)OC(CC)c1ccc(Cl)c2nc3n(c12)CCCN3c1ccc(Cl)cc1Cl (stereo not shown) [Example 241, 1-[9-Chloro-1-(2,4-dichlorophenyl)-1,2,3,4-tetrahydropyrimido[1,2-a]benzimidazol-6-yl]propyl propanoate]	133 to 135	< 1
CC(=O)OC(C)c1ccc(Cl)c2nc3n(c12)CCCN3c1ccc(Cl)cc1Cl (stereo not shown) [Example 243, 1-[9-Chloro-1-(2,4-dichlorophenyl)-1,2,3,4-tetrahydropyrimido[1,2-a]benzimidazol-6-yl]ethyl acetate]	204 to 206	< 1
CC(=O)OC(c1ccc(Cl)c2nc3n(c12)CCCN3c1ccc(Cl)cc1Cl)C1CC1 (stereo not shown) [Example 244, [9-Chloro-1-(2,4-dichlorophenyl)-1,2,3,4-tetrahydropyrimido[1,2-a]benzimidazol-6-yl](cyclopropyl)methyl acetate]	208 to 210	< 1
CCC(OC(C)=O)c1ccc(Cl)c2nc3n(c12)CCCN3c1ccc(C(C)=O)cc1Cl (stereo not shown) [Example 250, 1-[1-(4-Acetyl-2-chlorophenyl)-9-chloro-1,2,3,4-tetrahydropyrimido[1,2-a]benzimidazol-6-yl]propyl acetate]	183 to 186	< 1
CCC(OC(C)=O)c1ccc(Cl)c2nc3n(c12)CCCN3c1ccc(C(C)(C)O)cc1Cl (stereo not shown) [Example 252, 1-{9-Chloro-1-[2-chloro-4-(1-hydroxy-1-methylethyl)phenyl]-1,2,3,4-tetrahydropyrimido[1,2-a]benzimidazol-6-yl}propyl acetate]	184 to 186	< 1
CCC(OC(C)=O)c1ccc(Cl)c2nc3n(c12)CCCN3c1ccc(OC)cc1Cl (stereo not shown) [Example 260, 1-[9-Chloro-1-(2-chloro-4-methoxyphenyl)-1,2,3,4-tetrahydropyrimido[1,2-a]benzimidazol-6-yl]propyl acetate]	178 to 180	< 1
CCC(OC(=O)C1CC1)c1ccc(Cl)c2nc3n(c12)CCCN3c1ccc(OC)nc1C (stereo not shown) [Example 268, 1-[9-Chloro-1-(6-methoxy-2-methylpyridin-3-yl)-1,2,3,4-tetrahydropyrimido[1,2-a]benzimidazol-6-yl]propyl cyclopropanecarboxylate]	149 to 151	< 1
CCOC(CC)c1ccc(Cl)c2nc3n(c12)CCCN3c1ccc(OC)nc1C (stereo not shown) [Example 269, 9-Chloro-6-(1-ethoxypropyl)-1-(6-methoxy-2-methylpyridin-3-yl)-1,2,3,4-tetrahydropyrimido[1,2-a]benzimidazole]	174 to 176	< 1
CCC(OCC(F)(F)F)c1ccc(Cl)c2nc3n(c12)CCCN3c1ccc(OC)nc1C (stereo not shown) [Example 272, 9-Chloro-1-(6-methoxy-2-methylpyridin-3-yl)-6-[1-(2,2,2-trifluoroethoxy)propyl]-1,2,3,4-tetrahydropyrimido[1,2-a]benzimidazole]	124 to 126	< 1
CCC(OCC(F)F)c1ccc(Cl)c2nc3n(c12)CCCN3c1ccc(OC)nc1C (stereo not shown) [Example 273, 9-Chloro-6-[1-(2,2-difluoroethoxy)propyl]-1-(6-methoxy-2-methylpyridin-3-yl)-1,2,3,4-tetrahydropyrimido[1,2-a]benzimidazole]	130 to 132	< 1
COc1ccc(N2CCCn3c2nc2c(Cl)ccc(C(O)(C4CC4)C4CC4)c23)c(C)n1 [Example 276, [9-Chloro-1-(6-methoxy-2-methylpyridin-3-yl)-1,2,3,4-tetrahydropyrimido[1,2-a]benzimidazol-6-yl](dicyclopropyl)methanol]	208 to 210	< 1
COc1ccc(N2CCCn3c2nc2c(Cl)ccc(C(OCC(F)(F)F)C4CC4)c23)c(C)n1 (stereo not shown) [Example 277, 9-Chloro-6-[cyclopropyl (2,2,2-trifluoroethoxy)methyl]1-(6-methoxy-2-methylpyridin-3-yl)-1,2,3,4-tetrahydropyrimido[1,2-a]benzimidazole]	158 to 160	< 1
COc1ccc(N2CCCn3c2nc2c(Cl)ccc(C(OCC(F)F)C4CC4)c23)c(C)n1 (stereo not shown) [Example 278, 9-Chloro-6-[cyclopropyl(2,2-difluoroethoxy)methyl]-1-(6-methoxy-2-methylpyridin-3-yl)-1,2,3,4-tetrahydropyrimido[1,2-a]benzimidazole]	124 to 126	< 1
COc1ccc(N2CCCn3c2nc2c(Cl)ccc(C(OC)C(F)(F)F)c23)c(C)n1 (stereo not shown) [Example 280, 9-Chloro-1-(6-methoxy-2-methylpyridin-3-yl)-6-(2,2,2-trifluoro-1-methoxyethyl)-1,2,3,4-tetrahydropyrimido[1,2-a]benzimidazole]	144 to 146	< 1
CCCOc1ccc(N2CCCn3c2nc2c(Cl)ccc(C(OC(F)F)C(F)(F)F)c23)c(C)n1 (stereo not shown) [Example 289, 9-Chloro-6-[1-(difluoromethoxy)-2,2,2-trifluoroethyl]-1-(2-methyl-6-propoxypyridin-3-yl)-1,2,3,4-tetrahydropyrimido[1,2-a]benzimidazole]	156 to 158	< 1
Cc1nc(OC(F)F)ccc1N1CCCn2c1nc1c(Cl)ccc(C(OC(F)F)C(F)(F)F)c12 (stereo not shown) [Example 290, 9-Chloro-1-[6-(difluoromethoxy)-2-methylpyridin-3-yl]-6-[1-(difluoromethoxy)-2,2,2-trifluoroethyl]-1,2,3,4-tetrahydropyrimido[1,2-a]benzimidazole]	145 to 148	< 1
Cc1nc(C#N)ccc1N1CCCn2c1nc1c(Cl)ccc(C(OC(F)F)C(F)(F)F)c12 (stereo not shown) [Example 292, 5-{9-Chloro-6-[1-(difluoromethoxy)-2,2,2-trifluoroethyl]-3,4-dihydropyrimido[1,2-a]benzimidazol-1(2H)-yl}-6-methylpyridine-2-carbonitrile]	177 to 180	< 1
